Type in all cases: cell-based
Assay [1] concerns HEK293 cells overexpressing APOL1 G2. Description: APOL1 G2 HEK293 cell rescue assay (reversal of cell death caused by overexpression of APOL1). The following applies: Homo sapiens, HEK293, HEK293 overexpressing APOL1 G2; geometric mean of at least 2 assay runs; † = single assay run. An outline of the steps: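 Each compound tested in duplicate wells on one plate per run, with values usually the geometric mean across at least two runs on different days, occasionally from one run only. Read-out: concentration giving half-maximal rescue of APOL1 G2 overexpression-induced death of HEK293 cells.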

Assay [2] deals with Trypanosoma brucei Lister 427 VSG221 with APOL1 G1 recombinant protein. Description: APOL1 G1 trypanosome cell rescue assay (Example B5). The following applies: Trypanosoma brucei, 20 h, read-out: APOL1 G1 Trypanosome Rescue EC50, Trypanosoma brucei Lister 427 VSG221 with APOL1 G1 recombinant protein, 20 hours, CellTiter-Glo; geometric mean of at least 2 assay runs; † = single assay run. Summed up: (§1)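 Viability read by CellTiter-Glo luminescence after 20 h co-incubation (37° C, 5% CO2) of 250 trypanosomes/well in modified HMI-9 with test compound (duplicate 11-point, 2-fold dilutions, 0.4% DMSO) and APOL1 protein, […]. Protein: mature residues 28-398, E. coli inclusion-body refolded, tag cleaved, in DDM.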

In assay [3] the test system is Trypanosoma brucei Lister 427 VSG221 with APOL1 G0 recombinant protein. In words: APOL1 G0 trypanosome cell rescue assay (Example B5). The following applies: Trypanosoma brucei, 20 h, read-out: APOL1 G0 Trypanosome Rescue EC50, Trypanosoma brucei Lister 427 VSG221 with APOL1 G0 recombinant protein, 20 hours, CellTiter-Glo; geometric mean of at least 2 assay runs; † = single assay run. Summed up:
as §1
On the technique in general: Cellular ATP, detected with luciferase, serves as a proxy for viable cell number.

Take `CN(c1c(F)cc(OCCN2CCC3(CC2)C(=O)Nc2ccc(C#N)cc23)cc1F)S(C)(=O)=O` [Compound 128, N-[4-(2-{5-cyano-2-oxo-1,2-dihydrospiro[indole-3,4′-piperidin]-1′-yl}ethoxy)-2,6-difluorophenyl]-N-methylmethanesulfonamide]: the EC50 turned out to be 42.7 nM in assay [1], 383 nM in assay [2] and 269 nM in assay [3].
For `Cc1cc(OCCN2CCC3(CC2)C(=O)Nc2ccc(Cl)cc23)cc(C)c1S(C)(=O)=O` [Compound 129, 5-chloro-1′-[2-(4-methanesulfonyl-3,5-dimethylphenoxy)ethyl]-1,2-dihydrospiro[indole-3,4′-piperidin]-2-one], in that order: 24.6 nM, 69.5 nM and 65.2 nM.
Taken in the same sequence, the figures for `Cn1c(=O)oc2cc(OCCN3CCC4(CC3)C(=O)Nc3ccc(Cl)cc34)ccc21` [Compound 131, 5-chloro-1′-{2-[(3-methyl-2-oxo-2,3-dihydro-1,3-benzoxazol-6-yl)oxy]ethyl}-1,2-dihydrospiro[indole-3,4′-piperidin]-2-one] were 68 nM, 176 nM and 132 nM.
Taken in the same sequence, the figures for `Cn1c(=O)oc2cc(OCCN3CCC4(CC3)C(=O)Nc3ccc(C#N)cc34)ccc21` [Compound 132, 1′-{2-[(3-methyl-2-oxo-2,3-dihydro-1,3-benzoxazol-6-yl)oxy]ethyl}-2-oxo-1,2-dihydrospiro[indole-3,4′-piperidine]-5-carbonitrile] were 153 nM, 731 nM and 525 nM.
For the compound `CS(=O)(=O)C1(c2c(F)cc(OCCN3CCC4(CC3)C(=O)Nc3ccc(Cl)cc34)cc2F)COC1` [Compound 136, 5-chloro-1′-{2-[3,5-difluoro-4-(3-methanesulfonyloxetan-3-yl)phenoxy]ethyl}-1,2-dihydrospiro[indole-3,4′-piperidin]-2-one], the EC50 in assay [1] amounted to 22.4 nM; in assay [2] it was 37.1 nM; in assay [3], 31.5 nM.
For `CC(c1c(F)cc(OCCN2CCC3(CC2)C(=O)Nc2ccc(C#N)cc23)cc1F)S(C)(=O)=O` (stereo not drawn) [Compound 137, 1′-{2-[3,5-difluoro-4-(1-methanesulfonylethyl)phenoxy]ethyl}-2-oxo-1,2-dihydrospiro[indole-3,4′-piperidine]-5-carbonitrile], in that order: 114 nM, 454 nM and 322 nM.
For `Cc1cc(OCCN2CCC3(CC2)C(=O)Nc2ccc(C#N)cc23)cnc1S(C)(=O)=O` [Compound 140, 1′-{2-[(6-methanesulfonyl-5-methylpyridin-3-yl)oxy]ethyl}-2-oxo-1,2-dihydrospiro[indole-3,4′-piperidine]-5-carbonitrile], in that order: 172 nM, 653 nM and 408 nM.
Taken in the same sequence, the figures for `CC(C)N1C(=O)Cc2cc(OCCN3CCC4(CC3)C(=O)Nc3ccc(C#N)cc34)ccc21` [Compound 144, 2-oxo-1′-(2-{[2-oxo-1-(propan-2-yl)-2,3-dihydro-1H-indol-5-yl]oxy}ethyl)-1,2-dihydrospiro[indole-3,4′-piperidine]-5-carbonitrile] were 81 nM, 358 nM and 224 nM.
As to `CC(C)N1C(=O)Cc2cc(OCCN3CCC4(CC3)C(=O)Nc3ccc(Cl)cc34)ccc21` [Compound 145, 5-chloro-1′-(2-{[2-oxo-1-(propan-2-yl)-2,3-dihydro-1H-indol-5-yl]oxy}ethyl)-1,2-dihydrospiro[indole-3,4′-piperidin]-2-one], the values for the EC50 in assay [1], in assay [2] and in assay [3] were 50.4 nM, 118 nM and 86.5 nM, respectively.
Take `CN1Cc2cc(OCCN3CCC4(CC3)C(=O)Nc3ccc(Cl)cc34)ccc2C1=O` [Compound 146, 5-chloro-1′-{2-[(2-methyl-1-oxo-2,3-dihydro-1H-isoindol-5-yl)oxy]ethyl}-1,2-dihydrospiro[indole-3,4′-piperidin]-2-one]: the figures for the EC50 in assay [1], in assay [2] and in assay [3] were 121 nM, 427 nM and 346 nM, respectively.

By EC50 is commonly meant the concentration needed to bring the measured effect to its halfway point.

Source of the values: patent US12344610B2, “APOL1 inhibitors and methods of use” (Maze Therapeutics, Inc., priority 2022, dated 2025).
